In ChEMBL document CHEMBL5696442, “Discovery of type II inhibitors of TGFβ-activated kinase 1 (TAK1) and mitogen-activated protein kinase kinase kinase kinase 2 (MAP4K2)” (J Med Chem, 2015) one finds inhibition and residual activity data, which are given here for 3 molecules.

The structures appear in SMILES notation. Calls of active or inactive are those of the source. The calls are words filed in the database; no cut-off is given here.

For experiment [1], the target named is Cyclin-dependent kinase 1 (Homo sapiens) (UniProt P06493). Kind of experiment: Inhibition of CDC2 Lys2 labeling site harbouring DLKPQNLLIDDKGTIK in human A-375 cells at 5 uM by KiNativ Profiling analysis relative to control. In kind it is cell-based.
For experiment [2], the target named is Phosphatidylinositol 4-kinase beta (Homo sapiens) (UniProt Q9UBF8). Nature of the experiment: Inhibition of PIK4CB (unknown origin) at 1 uM by Ambit Kinomescan binding assay relative to control; values are per cent of control.
Experiment [3] has as its target Mitogen-activated protein kinase 3 (Homo sapiens) (UniProt P27361). Nature of the experiment: Inhibition of ERK1 (unknown origin) at 10 uM by Ambit Kinomescan binding assay.
In experiment [4] the target is Tyrosine-protein kinase JAK1 (Homo sapiens) (UniProt P23458). Kind of experiment: Inhibition of JAK1 JH2 pseudokinase domain (unknown origin) at 10 uM by Ambit Kinomescan binding assay.
Experiment [5] deals with T1, Serine/threonine-protein kinase LATS2 (Homo sapiens) (UniProt Q9NRM7).
T1 sequence (whole entry): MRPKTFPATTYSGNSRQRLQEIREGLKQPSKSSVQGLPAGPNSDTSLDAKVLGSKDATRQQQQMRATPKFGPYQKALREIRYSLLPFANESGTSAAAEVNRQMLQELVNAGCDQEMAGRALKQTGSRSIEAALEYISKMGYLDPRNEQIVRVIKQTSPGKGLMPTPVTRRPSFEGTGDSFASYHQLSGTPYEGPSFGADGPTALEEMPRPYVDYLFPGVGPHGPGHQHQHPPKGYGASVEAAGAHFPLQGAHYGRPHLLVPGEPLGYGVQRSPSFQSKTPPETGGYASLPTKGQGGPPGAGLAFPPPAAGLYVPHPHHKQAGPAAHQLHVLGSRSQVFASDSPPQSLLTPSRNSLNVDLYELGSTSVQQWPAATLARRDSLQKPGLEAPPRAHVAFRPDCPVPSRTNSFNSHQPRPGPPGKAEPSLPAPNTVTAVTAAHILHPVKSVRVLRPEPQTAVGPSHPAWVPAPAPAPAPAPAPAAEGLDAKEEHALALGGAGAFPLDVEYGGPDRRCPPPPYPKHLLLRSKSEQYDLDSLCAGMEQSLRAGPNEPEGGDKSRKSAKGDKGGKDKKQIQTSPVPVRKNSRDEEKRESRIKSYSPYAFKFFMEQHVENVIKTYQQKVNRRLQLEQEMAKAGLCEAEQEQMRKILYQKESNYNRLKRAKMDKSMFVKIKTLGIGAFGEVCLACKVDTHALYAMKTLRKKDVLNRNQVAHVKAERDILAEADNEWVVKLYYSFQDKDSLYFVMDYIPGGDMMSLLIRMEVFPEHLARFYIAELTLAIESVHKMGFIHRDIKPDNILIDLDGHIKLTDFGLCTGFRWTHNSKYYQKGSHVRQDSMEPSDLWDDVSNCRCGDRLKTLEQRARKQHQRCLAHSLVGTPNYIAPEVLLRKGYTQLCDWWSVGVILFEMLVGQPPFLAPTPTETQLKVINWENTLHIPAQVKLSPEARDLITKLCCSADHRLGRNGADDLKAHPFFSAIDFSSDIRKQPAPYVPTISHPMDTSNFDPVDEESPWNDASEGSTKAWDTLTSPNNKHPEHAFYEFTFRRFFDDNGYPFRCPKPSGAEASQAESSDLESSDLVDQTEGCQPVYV
Kind of experiment: Inhibition of LATS2 (unknown origin) at 10 uM by Ambit Kinomescan binding assay relative to control.

In experiment [6] the target is Mitogen-activated protein kinase kinase kinase kinase 4 (Homo sapiens, UniProt O95819). Kind of experiment: Inhibition of ZC1/HGK K2 labeling site in human Huh-7 cells at 1 uM by KiNativ Profiling analysis relative to control. The format is cell-based.
Experiment [7] addresses Serine/threonine-protein kinase TNNI3K (Homo sapiens) (UniProt Q59H18). Kind of experiment: Inhibition of TNNI3K (unknown origin) at 10 uM by Ambit Kinomescan binding assay relative to control; values are per cent of control.
For experiment [8], the target named is STE20-like serine/threonine-protein kinase (Homo sapiens) (UniProt Q9H2G2). Nature of the experiment: Inhibition of SLK Lys2 labeling site harbouring DLKAGNILFTLDGDIKLADFGVSAK in human Huh-7 cell lysate at 1 uM by KiNativ Profiling analysis relative to control. In kind it is subcellular.
The target of experiment [9] is T2, Serine/threonine-protein kinase TAO1 (Homo sapiens) (UniProt Q7L7X3).
T2 sequence (whole entry): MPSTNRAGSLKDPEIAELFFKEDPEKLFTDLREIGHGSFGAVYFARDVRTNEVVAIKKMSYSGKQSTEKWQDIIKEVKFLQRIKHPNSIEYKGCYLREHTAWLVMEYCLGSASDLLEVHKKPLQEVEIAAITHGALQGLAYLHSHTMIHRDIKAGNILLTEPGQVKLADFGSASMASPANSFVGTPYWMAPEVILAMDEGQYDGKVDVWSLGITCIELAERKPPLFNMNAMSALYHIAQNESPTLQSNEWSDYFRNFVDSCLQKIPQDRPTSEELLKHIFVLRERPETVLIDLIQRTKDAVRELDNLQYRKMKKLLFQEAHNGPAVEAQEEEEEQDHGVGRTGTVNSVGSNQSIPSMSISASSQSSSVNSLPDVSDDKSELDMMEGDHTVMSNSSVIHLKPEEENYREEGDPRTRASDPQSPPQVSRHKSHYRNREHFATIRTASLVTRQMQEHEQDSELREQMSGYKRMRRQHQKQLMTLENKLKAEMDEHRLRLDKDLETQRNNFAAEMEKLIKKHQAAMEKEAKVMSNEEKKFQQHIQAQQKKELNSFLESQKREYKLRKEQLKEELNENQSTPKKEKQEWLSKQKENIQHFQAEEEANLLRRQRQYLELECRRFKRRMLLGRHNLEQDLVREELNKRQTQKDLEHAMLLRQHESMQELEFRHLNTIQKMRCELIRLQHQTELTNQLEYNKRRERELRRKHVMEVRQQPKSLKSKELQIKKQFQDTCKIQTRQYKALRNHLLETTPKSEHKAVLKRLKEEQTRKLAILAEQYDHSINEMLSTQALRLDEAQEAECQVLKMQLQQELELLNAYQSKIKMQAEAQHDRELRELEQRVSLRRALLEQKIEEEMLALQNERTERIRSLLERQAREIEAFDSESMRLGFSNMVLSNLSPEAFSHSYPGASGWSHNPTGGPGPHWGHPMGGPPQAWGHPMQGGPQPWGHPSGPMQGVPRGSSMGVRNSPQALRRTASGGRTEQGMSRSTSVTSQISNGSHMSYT
Kind of experiment: Inhibition of TAO1 Lys2 labeling site in human Huh-7 cells at 1 uM by KiNativ Profiling analysis relative to control. The format is cell-based.

Mitogen-activated protein kinase 3 (Homo sapiens), sequence (P27361 whole entry, the tested form may be a part): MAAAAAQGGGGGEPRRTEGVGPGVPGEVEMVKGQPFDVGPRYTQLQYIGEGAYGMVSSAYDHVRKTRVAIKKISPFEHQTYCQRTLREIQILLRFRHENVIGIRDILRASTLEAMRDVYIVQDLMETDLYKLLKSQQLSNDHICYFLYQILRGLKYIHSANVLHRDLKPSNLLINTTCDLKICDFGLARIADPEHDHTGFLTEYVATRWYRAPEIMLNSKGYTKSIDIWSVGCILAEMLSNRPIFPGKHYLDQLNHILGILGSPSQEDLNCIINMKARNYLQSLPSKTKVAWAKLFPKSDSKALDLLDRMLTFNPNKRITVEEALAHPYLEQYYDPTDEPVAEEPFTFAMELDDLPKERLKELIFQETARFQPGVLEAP
Serine/threonine-protein kinase TNNI3K (Homo sapiens), sequence (Q59H18 whole entry): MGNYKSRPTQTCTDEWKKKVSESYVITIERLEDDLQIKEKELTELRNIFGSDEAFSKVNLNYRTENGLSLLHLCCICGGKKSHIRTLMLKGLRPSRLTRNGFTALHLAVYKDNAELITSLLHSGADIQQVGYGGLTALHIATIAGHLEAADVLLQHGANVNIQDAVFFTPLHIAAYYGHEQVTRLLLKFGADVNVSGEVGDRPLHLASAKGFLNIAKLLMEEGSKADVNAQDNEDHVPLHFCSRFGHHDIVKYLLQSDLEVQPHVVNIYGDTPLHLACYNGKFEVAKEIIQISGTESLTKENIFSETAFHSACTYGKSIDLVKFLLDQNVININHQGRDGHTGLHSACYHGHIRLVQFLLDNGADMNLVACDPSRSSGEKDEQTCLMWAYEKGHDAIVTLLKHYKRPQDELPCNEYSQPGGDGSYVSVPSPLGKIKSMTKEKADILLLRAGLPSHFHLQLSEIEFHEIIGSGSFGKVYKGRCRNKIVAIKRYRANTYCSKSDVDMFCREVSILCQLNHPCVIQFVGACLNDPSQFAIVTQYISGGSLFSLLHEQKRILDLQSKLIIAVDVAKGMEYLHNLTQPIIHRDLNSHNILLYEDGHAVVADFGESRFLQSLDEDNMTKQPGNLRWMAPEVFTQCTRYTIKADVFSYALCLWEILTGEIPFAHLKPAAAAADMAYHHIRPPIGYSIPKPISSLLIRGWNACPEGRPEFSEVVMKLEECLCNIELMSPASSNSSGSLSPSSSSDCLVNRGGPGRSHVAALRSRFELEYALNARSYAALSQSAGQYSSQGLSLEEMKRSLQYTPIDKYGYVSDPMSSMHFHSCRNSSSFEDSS
Mitogen-activated protein kinase kinase kinase kinase 4, sequence (O95819 2-1239 limits assumed): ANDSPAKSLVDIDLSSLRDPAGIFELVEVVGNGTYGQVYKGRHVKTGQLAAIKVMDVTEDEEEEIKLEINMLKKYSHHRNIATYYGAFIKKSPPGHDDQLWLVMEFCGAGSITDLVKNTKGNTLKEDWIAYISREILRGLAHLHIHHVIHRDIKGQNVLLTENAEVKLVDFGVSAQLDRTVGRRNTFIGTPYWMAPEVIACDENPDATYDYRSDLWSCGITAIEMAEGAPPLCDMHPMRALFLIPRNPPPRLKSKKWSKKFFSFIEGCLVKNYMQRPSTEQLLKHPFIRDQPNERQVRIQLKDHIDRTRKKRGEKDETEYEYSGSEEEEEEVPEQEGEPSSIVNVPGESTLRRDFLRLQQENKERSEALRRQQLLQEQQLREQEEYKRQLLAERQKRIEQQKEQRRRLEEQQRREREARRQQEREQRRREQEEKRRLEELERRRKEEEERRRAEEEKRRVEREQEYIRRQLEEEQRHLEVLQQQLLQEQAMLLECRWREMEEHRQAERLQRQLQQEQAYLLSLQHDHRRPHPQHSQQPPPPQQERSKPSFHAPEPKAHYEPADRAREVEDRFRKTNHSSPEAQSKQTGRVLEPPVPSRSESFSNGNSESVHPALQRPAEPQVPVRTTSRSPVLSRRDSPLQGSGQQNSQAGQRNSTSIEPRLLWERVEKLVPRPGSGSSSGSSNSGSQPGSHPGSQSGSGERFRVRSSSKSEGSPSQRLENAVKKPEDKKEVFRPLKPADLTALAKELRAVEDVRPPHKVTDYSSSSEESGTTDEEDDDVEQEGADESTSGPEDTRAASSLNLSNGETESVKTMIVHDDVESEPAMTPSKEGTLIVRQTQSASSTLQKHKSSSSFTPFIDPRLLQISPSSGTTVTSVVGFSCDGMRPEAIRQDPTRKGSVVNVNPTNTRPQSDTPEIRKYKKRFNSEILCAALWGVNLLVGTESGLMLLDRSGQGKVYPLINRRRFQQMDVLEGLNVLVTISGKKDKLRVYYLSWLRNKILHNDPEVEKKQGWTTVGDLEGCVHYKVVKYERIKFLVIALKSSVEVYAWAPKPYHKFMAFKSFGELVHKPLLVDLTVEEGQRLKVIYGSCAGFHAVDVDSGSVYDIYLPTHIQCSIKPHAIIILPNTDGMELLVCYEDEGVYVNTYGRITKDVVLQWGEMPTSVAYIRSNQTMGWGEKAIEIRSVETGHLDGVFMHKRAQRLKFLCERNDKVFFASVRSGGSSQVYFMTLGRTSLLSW
STE20-like serine/threonine-protein kinase (Homo sapiens), sequence (Q9H2G2 whole entry, looked up): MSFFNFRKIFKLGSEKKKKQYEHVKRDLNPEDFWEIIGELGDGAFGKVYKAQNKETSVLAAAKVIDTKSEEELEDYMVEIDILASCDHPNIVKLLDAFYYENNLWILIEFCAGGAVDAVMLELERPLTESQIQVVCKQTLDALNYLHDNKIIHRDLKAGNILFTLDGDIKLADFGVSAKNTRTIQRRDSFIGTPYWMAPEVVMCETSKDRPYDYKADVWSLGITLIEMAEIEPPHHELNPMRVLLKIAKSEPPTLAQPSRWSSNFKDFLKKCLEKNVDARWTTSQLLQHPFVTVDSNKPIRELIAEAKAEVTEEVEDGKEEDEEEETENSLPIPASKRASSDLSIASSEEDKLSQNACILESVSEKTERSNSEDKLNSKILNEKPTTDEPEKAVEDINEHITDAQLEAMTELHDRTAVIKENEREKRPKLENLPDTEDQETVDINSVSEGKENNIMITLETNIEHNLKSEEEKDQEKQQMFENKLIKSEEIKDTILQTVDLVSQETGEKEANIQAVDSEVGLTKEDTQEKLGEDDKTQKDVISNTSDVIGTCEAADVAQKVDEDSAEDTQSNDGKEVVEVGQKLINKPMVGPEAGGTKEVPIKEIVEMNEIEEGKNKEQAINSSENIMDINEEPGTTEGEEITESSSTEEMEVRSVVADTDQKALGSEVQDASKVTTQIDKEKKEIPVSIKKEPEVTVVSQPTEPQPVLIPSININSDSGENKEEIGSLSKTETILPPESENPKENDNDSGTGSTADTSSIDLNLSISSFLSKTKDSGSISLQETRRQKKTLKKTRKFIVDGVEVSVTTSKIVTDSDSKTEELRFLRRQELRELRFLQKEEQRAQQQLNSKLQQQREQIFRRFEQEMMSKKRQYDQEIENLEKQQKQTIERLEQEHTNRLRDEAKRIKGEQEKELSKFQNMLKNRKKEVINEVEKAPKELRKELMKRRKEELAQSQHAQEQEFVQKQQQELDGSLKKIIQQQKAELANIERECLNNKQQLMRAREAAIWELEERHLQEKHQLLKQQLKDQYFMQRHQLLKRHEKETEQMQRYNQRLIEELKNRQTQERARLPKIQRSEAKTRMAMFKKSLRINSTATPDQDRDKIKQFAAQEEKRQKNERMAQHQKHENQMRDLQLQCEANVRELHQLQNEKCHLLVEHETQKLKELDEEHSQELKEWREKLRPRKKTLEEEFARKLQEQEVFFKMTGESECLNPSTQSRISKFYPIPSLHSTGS
Cyclin-dependent kinase 1 (Homo sapiens), sequence (P06493 whole entry, looked up): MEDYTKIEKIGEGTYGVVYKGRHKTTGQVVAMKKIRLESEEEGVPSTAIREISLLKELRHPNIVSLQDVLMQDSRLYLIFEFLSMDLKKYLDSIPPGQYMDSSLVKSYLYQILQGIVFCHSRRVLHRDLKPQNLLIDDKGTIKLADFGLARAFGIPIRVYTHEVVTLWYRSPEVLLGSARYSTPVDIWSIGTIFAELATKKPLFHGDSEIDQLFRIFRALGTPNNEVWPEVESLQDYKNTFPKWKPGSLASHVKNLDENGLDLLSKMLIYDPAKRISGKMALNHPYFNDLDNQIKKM
Phosphatidylinositol 4-kinase beta (Homo sapiens), sequence (Q9UBF8 2-816 limits assumed): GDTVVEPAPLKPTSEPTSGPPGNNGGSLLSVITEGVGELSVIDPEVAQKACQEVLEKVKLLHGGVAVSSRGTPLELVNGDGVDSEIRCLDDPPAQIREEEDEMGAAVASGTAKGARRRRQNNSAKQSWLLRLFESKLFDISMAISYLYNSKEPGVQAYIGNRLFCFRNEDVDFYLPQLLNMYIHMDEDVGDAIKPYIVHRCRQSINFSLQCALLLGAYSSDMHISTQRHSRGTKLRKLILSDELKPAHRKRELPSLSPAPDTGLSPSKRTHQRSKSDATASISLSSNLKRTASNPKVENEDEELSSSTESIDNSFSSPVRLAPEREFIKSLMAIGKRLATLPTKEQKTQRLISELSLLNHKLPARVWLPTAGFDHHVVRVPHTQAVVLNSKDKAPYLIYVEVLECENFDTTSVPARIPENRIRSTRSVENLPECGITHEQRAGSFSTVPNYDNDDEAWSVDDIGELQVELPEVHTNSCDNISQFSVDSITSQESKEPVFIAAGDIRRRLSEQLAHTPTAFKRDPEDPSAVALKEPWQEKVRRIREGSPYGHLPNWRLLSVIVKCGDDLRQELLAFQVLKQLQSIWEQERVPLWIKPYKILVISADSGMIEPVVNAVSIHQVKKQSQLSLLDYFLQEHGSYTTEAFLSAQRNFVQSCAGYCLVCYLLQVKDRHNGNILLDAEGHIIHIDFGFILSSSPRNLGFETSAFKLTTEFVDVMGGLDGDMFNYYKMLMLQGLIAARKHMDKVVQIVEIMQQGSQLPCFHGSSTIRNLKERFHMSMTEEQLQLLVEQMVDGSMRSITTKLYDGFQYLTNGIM

With `CCN1CCN(Cc2ccc(NC(=O)c3ccc(C)c(/C=C/c4cnc5[nH]ccc5c4OC)c3)cc2C(F)(F)F)CC1`, the inhibition in experiment [1] is -6.1%. The residual activity in experiment [2] was determined as 100%.

Take `CCN1CCN(Cc2ccc(NC(=O)c3ccc(C)c(Oc4ccnc5[nH]ccc45)c3)cc2C(F)(F)F)CC1`: the inhibition entry in [3] and in experiment [4] was “inactive” in each case. Also, the figures for the inhibition in experiment [5] and in [6] were 13% and 23%, respectively. The residual activity in experiment [7] turned out to be 4.8%.

As to `CNc1cc(Oc2cc(C(=O)Nc3cc(N4CCN(C)CC4)cc(C(F)(F)F)c3)ccc2C)ncn1`, the results for the inhibition in experiment [8] and in [9] were 30.2% and 0.4%, respectively.

As a reminder, the inhibition is the relative decrease from the control value, in per cent. One may read the residual activity as the share of the control activity or signal that is left under treatment. Read a high residual activity as much activity left.
